The subject of data set [1] is quagga mussels. In words: Mussel bioassay test (live mussel jar-test). Format: in vivo, Dreissena bugensis. Particulars: Dreissena rostriformis, 16 μg/ml. How it is done: Twenty freshly collected quagga mussels is placed in a jar containing 250 mL of de-chlorinated tap water at room temperature. Jars are kept at room temperature and connected into a manifold providing constant air supply through bubbling. Each test subject (HPLC fraction or peak) dissolved in DMSO is pipetted into jars separately at a concentration of 1-5 mg, and the mussels are incubated with the test subject for 24 hours. After the incubation period, water in each jar is discarded, and the mussels are rinsed with fresh water and transferred into open glass petri dishes for a 10-day observation period. Mussels are checked daily for mortality, and the dead mussels are removed and discarded. Each treatment is carried out in three replicates, and in the end of the 10-day incubation period, % mortality is calculated for each treatment.
The potency of compounds isolated from Pseudomonas cell culture is tested using procedures described above.

The subject of a further data set is CL145A (ATCC 55799). Description: Antibiotic resistance profile, discs on Mueller-Hinton Agar. The format is cell-based, Pseudomonas protegens strain CL145A. Particulars: for CL145A resistant or sensitive to the antibiotic: antibiotic disc, 72 hours incubation; for Suppresses growth of CL145A: 25° C., 72 hours. How it is done:
One glycerol stock vial of CL145A was equally distributed onto Mueller-Hinton Agar plates (100 μl per plate) and spread on the plate using a sterile cell spreader. Antibiotic discs were then placed onto the plates along with a blank sterile disc. Plates were incubated at 25° C. in the dark for 72 hours.

In data set [2] the test system is quagga mussels. In words: whole plant or invertebrate. Particulars: Dreissena rostriformis.
Data set [3] relates to Brown garden snails (Cantareus aspersus). In words: Snail experiments: chemical-containing corn starch. The format is in vivo. Particulars: 100 mg/gram corn starch; for Consumed amount of corn starch: after 24 hr. As to the method: An appropriate amount of a testing compound is dissolved in acetone (2 mL) first. The solution was added into 2.5 gram of corn starch and mixed well. The resulting mixture is transferred to a Petri dish (Φ 25 mm). The Petri dish is then put in the hood for natural dry. After drying, water (2 mL) is added into the Petri dish to make paste.
Brown garden snails (Cantareus aspersus) are collected from a house garden and raised at least 1 day in lab with cabbage or red carrot. Five individuals with a similar size are chosen for each treatment and transferred into a 1 L beaker. To make the snail active, some water is sprayed on them and in the beaker by using hand-sprayer. After spraying water, the Petri dish with chemical-containing corn starch is placed into the beaker the beaker is covered on the top with aluminum foil. Eating behavior, consumed amount of corn starch and mortality at 24 hr is recorded.

The mark [4] stands for this setting: 24 hr, read-out: % mortality 24 hr.
Where [5] appears, read: 48 hr, read-out: % mortality 48 hr.
The mark [6] stands for this setting: 72 hr, read-out: % mortality 72 hr.
Where [7] appears, read: 96 hr, read-out: % mortality 96 hr.
Where [8] appears, read: 24 h, read-out: Molluscicidal effect (mortality) 24 hr.
Setting [9] is: 48 h, read-out: Molluscicidal effect (mortality) 48 hr.
The mark [10] stands for this setting: 72 h, read-out: Molluscicidal effect (mortality) 72 hr.
Where [11] appears, read: 96 h, read-out: Molluscicidal effect (mortality) 96 hr.
The mark [12] stands for this setting: 24 h, read-out: Potency toward quagga mussels (mortality) 24 hr.
[13] abbreviates: 48 h, read-out: Potency toward quagga mussels (mortality) 48 hr.
The mark [14] stands for this setting: 72 h, read-out: Potency toward quagga mussels (mortality) 72 hr.
The mark [15] stands for this setting: 96 h, read-out: Potency toward quagga mussels (mortality) 96 hr.

Read-outs that look alike come from different tables or passages of the source.

By mortality is commonly meant the share of the test organisms that died.

Take `CCCCC/C=C/C(O)CCCCCCCCCC(=O)O` (stereo not drawn) [11-Hydroxy-12-ene-octadecanoic acid]: the mortality at 16 µg/mL is 0% with quagga mussels [1] (setting [4]), 20 ± 20% in the data set with quagga mussels [1] (setting [5]), 33.3 ± 20.8% in the data set on quagga mussels [1] (setting [6]) and 40 ± 26.5% in the data set with quagga mussels [1] (setting [7]).
Take `CC1(C)S[C@@H]2[C@H](NC(=O)[C@H](N)c3ccccc3)C(=O)N2[C@H]1C(=O)O` [Ampicillin]: the “CL145A resistant or sensitive to the antibiotic” value (“CL145A resistant or sensitive” below) in the data set on CL145A (ATCC 55799) is recorded as “resistant”. Further, the “Suppresses growth of CL145A” value in the data set with CL145A (ATCC 55799) (disc 10 μg) is “No”.
Take `CO/N=C(\C(=O)N[C@@H]1C(=O)N2C(C(=O)O)=C(COC(N)=O)CS[C@H]12)c1ccco1` [Cefuroxime]: the “CL145A resistant or sensitive” value in the data set with CL145A (ATCC 55799) is reported as “resistant”. Besides, in the data set with CL145A (ATCC 55799) (disc 30 μg), the “Suppresses growth of CL145A” value is on record as “No”.
The corresponding values for `O=C(N[C@H](CO)[C@H](O)c1ccc([N+](=O)[O-])cc1)C(Cl)Cl` [Chloramphenicol] are “resistant” and “No”.
As to `CC[C@H]1OC(=O)[C@H](C)[C@@H](O[C@H]2C[C@@](C)(OC)[C@@H](O)[C@H](C)O2)[C@H](C)[C@@H](O[C@@H]2O[C@H](C)C[C@H](N(C)C)[C@H]2O)[C@](C)(O)C[C@@H](C)C(=O)[C@H](C)[C@@H](O)[C@]1(C)O` [Erythromycin], the “CL145A resistant or sensitive” value in the data set with CL145A (ATCC 55799) is “resistant”. Also, the “Suppresses growth of CL145A” value in the data set with CL145A (ATCC 55799) (disc 15 μg) was “No”.
For the compound `CCCCC/C=C/C(O)CCCCCCC1CCC(=O)O1` (stereo not drawn) [Piliferolide A], the mortality at 16 µg/mL turned out to be 53.3 ± 15.3% in the data set with quagga mussels [1] (setting [4]), 53.3 ± 15.3% in the data set with quagga mussels [1] (setting [5]), 70 ± 10% with quagga mussels [1] (setting [6]) and 80 ± 10% in the data set with quagga mussels [1] (setting [7]).
For `CCN1CCN(C(=O)N[C@@H](C(=O)N[C@@H]2C(=O)N3[C@@H]2SC(C)(C)[C@@H]3C(=O)O)c2ccccc2)C(=O)C1=O` [Piperacillin], the “CL145A resistant or sensitive” value in the data set with CL145A (ATCC 55799) is listed as “sensitive”. For the same compound, the “Suppresses growth of CL145A” value with CL145A (ATCC 55799) (disc 100 μg) is recorded as “Yes”.
Take `CCCCCCCCC1CCC(=O)O1` (stereo not drawn) [SAR-001]: the mortality at 11.1 µg/mL in the data set on quagga mussels [2] (setting [8]) was 86.7 ± 5.8%; in the data set with quagga mussels [2] (setting [9]), 96.7 ± 5.8%; in the data set with quagga mussels [2] (setting [10]) it was 96.7 ± 5.8%; with quagga mussels [2] (setting [11]), 96.7 ± 5.8%.
On to `CCCCCCCC1CCOC1=O` (stereo not drawn) [SAR-002], for which the mortality at 11.1 µg/mL came to 30 ± 10% with quagga mussels [2] (setting [8]), 66.7 ± 15.3% in the data set on quagga mussels [2] (setting [9]), 73.3 ± 11.5% with quagga mussels [2] (setting [10]) and 76.7 ± 15.3% with quagga mussels [2] (setting [11]).
The like results for `CCCCCCCCC1CCCC(=O)O1` (stereo not drawn) [SAR-003] were, in that order, 3.3 ± 5.7%, 10 ± 10%, 10 ± 10% and 10 ± 10%.
The corresponding values for `CCCCCCCCCC1CCCC(=O)O1` (stereo not drawn) [SAR-004] are 0%, 0%, 0% and 0%.
The corresponding values for `CCCCCCCCCCCC(=O)O` [SAR-005] are 0%, 0%, 0% and 0%.
On to `CCCCCCCCC(O)CCC(=O)O` (stereo not drawn) [SAR-006], for which the mortality at 11.1 µg/mL in the data set with quagga mussels [2] (setting [8]), in the data set on quagga mussels [2] (setting [9]), with quagga mussels [2] (setting [10]) and in the data set on quagga mussels [2] (setting [11]) was 0% throughout.
Take `CCCCCCCCCC(=O)N1CCCC1` [SAR-007, N-(Decanoyl)pyrrolidine]: the mortality at 11.1 µg/mL in the data set on quagga mussels [2] (setting [12]) was found to be 35 ± 7%; in the data set with quagga mussels [2] (setting [13]) it was 50 ± 14%; in the data set on quagga mussels [2] (setting [14]), 55 ± 21%; with quagga mussels [2] (setting [15]), 65 ± 21%.
In the case of `CCCCCC1CCC(=O)O1` (stereo not drawn) [SAR-008], the mortality at 11.1 µg/mL in the data set with quagga mussels [2] (setting [8]), in the data set on quagga mussels [2] (setting [9]), in the data set with quagga mussels [2] (setting [10]) and in the data set with quagga mussels [2] (setting [11]) was 0% each time.
In the case of `CCCC1CCC(=O)O1` (stereo not drawn) [SAR-011], the mortality at 11.1 µg/mL with quagga mussels [2] (setting [8]), in the data set with quagga mussels [2] (setting [9]), in the data set on quagga mussels [2] (setting [10]) and with quagga mussels [2] (setting [11]) was 0% each time.
In the case of `O=C1CCC(c2ccccc2)O1` (stereo not drawn) [SAR-013], the mortality at 11.1 µg/mL in the data set with quagga mussels [2] (setting [8]), with quagga mussels [2] (setting [9]), in the data set with quagga mussels [2] (setting [10]) and in the data set on quagga mussels [2] (setting [11]) was 0% throughout.
In the case of `CCCCCCC1CCC(=O)O1` (stereo not drawn) [SAR-014], the “Effect on brown garden snails” value in data set [3] is listed as “strongly repel brown garden snails”. Besides, the 24 hr mortality in data set [3] (24 hr) is on record as 0%. In addition, the “Consumed amount of corn starch” value in data set [3] is on record as 0% after. Moreover, the mortality at 11.1 µg/mL in the data set on quagga mussels [2] (setting [8]), in the data set on quagga mussels [2] (setting [9]), in the data set with quagga mussels [2] (setting [10]) and in the data set with quagga mussels [2] (setting [11]) was 0% each time.
In the case of `CCCCCCCCCC(=O)NC1CCCC1` [SAR-020, N-Cyclopentyldecanamide], the mortality at 11.1 µg/mL in the data set with quagga mussels [2] (setting [12]), with quagga mussels [2] (setting [13]), in the data set with quagga mussels [2] (setting [14]) and in the data set on quagga mussels [2] (setting [15]) was 75 ± 7% in each case.
For the compound `CCCCCCCCCC(=O)N1CCCCC1` [SAR-021, N-(Decanoyl)piperidine], the mortality at 11.1 µg/mL worked out at 55 ± 21% with quagga mussels [2] (setting [12]), 55 ± 21% in the data set with quagga mussels [2] (setting [13]), 60 ± 14% in the data set with quagga mussels [2] (setting [14]) and 65 ± 7% in the data set with quagga mussels [2] (setting [15]).
With `CCCCCCCCCC(=O)N1CCCCCC1` [SAR-022, N-(Decanoyl)hexamethyleneimine], the mortality at 11.1 µg/mL with quagga mussels [2] (setting [12]) is 35 ± 7%; in the data set on quagga mussels [2] (setting [13]), 40 ± 14%; in the data set with quagga mussels [2] (setting [14]), 40 ± 14%; in the data set on quagga mussels [2] (setting [15]), 45 ± 21%.
As for `O=C(/C=C/c1ccccc1)NC1CCCC1` [SAR-023, N-Cyclopentylcinnamamide], the mortality at 11.1 µg/mL in the data set with quagga mussels [2] (setting [12]), in the data set with quagga mussels [2] (setting [13]), in the data set on quagga mussels [2] (setting [14]) and with quagga mussels [2] (setting [15]) was 0% in each case.
Consider `O=C(/C=C/c1ccccc1)N1CCCC1` [SAR-024, N-(trans-Cinnamoyl)pyrrolidine], for which the mortality at 11.1 µg/mL in the data set with quagga mussels [2] (setting [12]), in the data set on quagga mussels [2] (setting [13]), in the data set with quagga mussels [2] (setting [14]) and in the data set on quagga mussels [2] (setting [15]) was 0% each time.
For the compound `O=C(/C=C/c1ccccc1)N1CCCCC1` [SAR-025, N-(trans-Cinnamoyl)piperidine], the mortality at 11.1 µg/mL in the data set on quagga mussels [2] (setting [12]), with quagga mussels [2] (setting [13]), in the data set with quagga mussels [2] (setting [14]) and with quagga mussels [2] (setting [15]) was 0% throughout.
With `O=C(/C=C/c1ccccc1)N1CCCCCC1` [SAR-026, N-(trans-Cinnamoyl) hexamethyleneimine], the mortality at 11.1 µg/mL with quagga mussels [2] (setting [12]), in the data set on quagga mussels [2] (setting [13]), with quagga mussels [2] (setting [14]) and in the data set on quagga mussels [2] (setting [15]) was 0% in each case.
Consider `CCCCCCC/C=C/C(=O)NC1CCCC1` [SAR-027, N-Cyclopentyldecenamide], for which the mortality at 11.1 µg/mL in the data set on quagga mussels [2] (setting [12]) amounted to 85 ± 7%; in the data set on quagga mussels [2] (setting [13]), 95 ± 7%; with quagga mussels [2] (setting [14]), 95 ± 7%; in the data set with quagga mussels [2] (setting [15]), 95 ± 7%.
Consider `CCCCCCCC=CC(=O)N1CCCC1` [SAR-030, N-(Decenoyl)pyrrolidine], for which, in data set [3], the “Effect on brown garden snails” value is “kill all brown garden snails after they ate” and the “Consumed amount of corn starch” value was “Less than 5%”.
As for `[H]/N=C(/N)N[C@H]1[C@H](O)[C@@H](O)[C@H](O[C@@H]2O[C@@H](C)[C@](O)(C=O)[C@H]2O[C@@H]2O[C@@H](CO)[C@H](O)[C@@H](O)[C@@H]2NC)[C@@H](N/C(N)=N\[H])[C@@H]1O` [Streptomycin], the “CL145A resistant or sensitive” value with CL145A (ATCC 55799) is listed as “resistant”. Also, the “Suppresses growth of CL145A” value in the data set on CL145A (ATCC 55799) (disc 10 μg) is “No”.
The like results for Gentamicin were, in that order, “sensitive” and “Yes”.
The like results for Penicillin were, in that order, “resistant” and “No”.

Values taken from US9414590B2, “Chemical and biological agents for the control of molluscs” (priority 2009, dated 2016).
